≈ marks a conversion by molar mass, not a printed value. Structures can show the parent of a compound that is named as a salt. Where two headings read alike, the source gives them in different places.
Key:
Type in all cases: cell-based
E. coli NIHJ = assay: Antibacterial activity (MIC, agar plate, standard method of the Japanese Chemotherapeutic Society); conditions: 10^4 cells/plate, 37° C., 20 hours
Procedure: (§1) According to the standard method of the Japanese Chemotherapeutic Society [Chemotherapy, Vol. 23, Pages 1-2 (1975)], a culture obtained by cultivating bacteria in Heart Infusion broth (manufactured by Eken Kagakusha) at 37° C. for 20 hours was inoculated into a Heart Infusion agar medium (manufactured by Eiken Kagakusha) and cultivated at 37° C. for 20 hours, after which the growth of bacteria was examined visually. The minimum inhibitory concentration at which the bacterial growth was inhibited was taken as MIC (μg/ml). The amount of the inoculated bacteria was 10^4 cells/plate (10^6 cells/ml).

Aci. calcoaceticus A-6 = assay: Antibacterial activity (MIC, agar plate); conditions: 37° C., 20 hours
Procedure: as §1

Al. faecalis B-1 = assay: Antibacterial activity (MIC, agar plate)
Procedure: as §1

[1] = test system: E. coli TK3 (Penicillinase-producing bacteria); assay: Antibacterial activity (MIC, agar plate)
Procedure: as §1

Ent. cloacae IID977 = assay: Antibacterial activity (MIC, agar plate); conditions: 10^4 cells/plate, 37° C., 20 hours
Procedure: as §1

Kl. pneumoniae Y-41 = assay: Antibacterial activity (MIC, agar plate); conditions: Kl. pneumoniae Y-41, 10^4 cells/plate, 37° C., 20 hours
Procedure: as §1

Kl. pneumoniae Y-50 = assay: Antibacterial activity (MIC, agar plate); conditions: 37° C., 20 hours
Procedure: as §1

Klebsiella spp Y-72 = assay: Antibacterial activity (MIC, agar plate); conditions: Klebsiella spp Y-72, 10^4 cells/plate, 37° C., 20 hours
Procedure: as §1

Pro. mirabilis T-100 = assay: Antibacterial activity (MIC, agar plate); conditions: 37° C., 20 hours
Procedure: as §1

Pro. mirabilis T-111 = assay: Antibacterial activity (MIC, agar plate)
Procedure: as §1

Pro. morganii T-216 = assay: Antibacterial activity (MIC, agar plate)
Procedure: as §1

[2] = test system: Pro. vulgaris GN76 (Cephalosporinase-producing bacteria); assay: Antibacterial activity (MIC, agar plate)
Procedure: as §1

Ser. marcescens IID620 = assay: Antibacterial activity (MIC, agar plate)
Procedure: as §1

[3] = Escherichia coli, read-out: MIC
[4] = Acinetobacter calcoaceticus, A6, 10^4 cells/plate, read-out: MIC
[5] = Alcaligenes faecalis, B1, Al. faecalis B-1, 10^4 cells/plate, 37° C., 20 hours, read-out: MIC
[6] = Enterobacter cloacae, read-out: MIC
[7] = Klebsiella pneumoniae, Y41, read-out: MIC
[8] = Klebsiella pneumoniae, Y50, 10^4 cells/plate, read-out: MIC
[9] = Proteus mirabilis, T100, 10^4 cells/plate, read-out: MIC
[10] = Morganella morganii, T216, 20 h
[11] = Serratia marcescens, IID620, 20 h
[12] = Morganella morganii, T216, Pro. morganii T-216, 10^4 cells/plate, 37° C., 20 hours, read-out: MIC
[13] = Proteus vulgaris, Pro. vulgaris GN76 (cephalosporinase-producing), 10^4 cells/plate, 37° C., 20 hours, read-out: MIC
[14] = Serratia marcescens, Ser. marcescens IID620, 10^4 cells/plate, 37° C., 20 hours, read-out: MIC

SMILES	MIC (E. coli NIHJ; [3]) [µg/mL]	MIC (Aci. calcoaceticus A-6; [4]) [µg/mL]	MIC (Al. faecalis B-1; [5]) [µg/mL]	MIC ([1]; Escherichia coli, 20 h) [µg/mL]	MIC (Ent. cloacae IID977; [6]) [µg/mL]	MIC (Kl. pneumoniae Y-41; [7]) [µg/mL]	MIC (Kl. pneumoniae Y-50; [8]) [µg/mL]	MIC (Klebsiella spp Y-72; Y72, read-out: MIC) [µg/mL]	MIC (Pro. mirabilis T-100; [9]) [µg/mL]	MIC (Pro. mirabilis T-111; Proteus mirabilis, T111, 20 h) [µg/mL]	MIC (Pro. morganii T-216; [10]) [µg/mL]	MIC ([2]; Proteus vulgaris, GN76, 20 h) [µg/mL]	MIC (Ser. marcescens IID620; [11]) [µg/mL]	MIC (Pro. morganii T-216; [12]) [µg/mL]	MIC [2, 13] [µg/mL]	MIC (Ser. marcescens IID620; [14]) [µg/mL]	further results
CO/N=C(\C(=O)NC1C(=O)N2C(C(=O)O)=C(Cn3cnc(NC(C)=O)n3)CS[C@H]12)c1csc(N)n1.O=C(O)C(F)(F)F (stereo partly drawn) [A, Trifluoroacetic acid salt of 7-[2-(2-aminothiazol-4-yl)-2-(syn)-methoxyiminoacetamido]-3-[(3-acetamido-1,2,4-triazolyl)methyl]-Δ^3-cephem-4-carboxylic acid]	–	–	–	–	–	–	–	–	–	–	–	–	–	–	–	–	MIC (E. coli NIHJ): ≤ 0.1 µg/mL; MIC (Aci. calcoaceticus A-6; 10^4 cells/plate): 25 µg/mL; MIC (Al. faecalis B-1; Al. faecalis B-1, 10^4 cells/plate, 37° C., 20 hours): 50 µg/mL; MIC ([1]; E. coli TK3 (penicillinase-producing), 10^4 cells/plate, 37° C., 20 hours): 0.39 µg/mL; MIC (Ent. cloacae IID977): 6.25 µg/mL; MIC (Kl. pneumoniae Y-41): 0.2 µg/mL; MIC (Kl. pneumoniae Y-50; 10^4 cells/plate): ≤ 0.1 µg/mL; MIC (Klebsiella spp Y-72): 6.25 µg/mL; MIC (Pro. mirabilis T-100; 10^4 cells/plate): ≤ 0.1 µg/mL; MIC (Pro. mirabilis T-111; Pro. mirabilis T-111, 10^4 cells/plate, 37° C., 20 hours): 0.2 µg/mL; MIC (Pro. morganii T-216; Pro. morganii T-216, 10^4 cells/plate, 37° C., 20 hours): 0.2 µg/mL; MIC ([2]; Pro. vulgaris GN76 (cephalosporinase-producing), 10^4 cells/plate, 37° C., 20 hours): 3.13 µg/mL; MIC (Ser. marcescens IID620; Ser. marcescens IID620, 10^4 cells/plate, 37° C., 20 hours): 0.78 µg/mL
CO/N=C(\C(=O)NC1C(=O)N2C(C(=O)O)=C(CNC(=O)c3ccco3)CSC12)c1csc(N)n1 (stereo not drawn) [B, Trifluoroacetic acid salt of 7-[2-(2-aminothiazol-4-yl)-2-(syn)-methoxyiminoacetamido]-3-(furan-2-yl-carboxamido)methyl-Δ^3-cephem-4-carboxylic acid]	≤ 0.1	25	12.5	0.39	25	0.2	≤ 0.1	1.56	≤ 0.1	0.2	0.39	0.78	0.2	–	–	–	–
CO/N=C(\C(=O)NC1C(=O)N2C(C(=O)O)=C(CNC(C)=O)CSC12)c1csc(N)n1 (stereo not drawn) [C, Trifluoroacetic acid salt of 7-[2-(2-aminothiazol-4-yl)-2-(syn)-methoxyiminoacetamido]-3-acetamidomethyl-Δ^3-cephem-4-carboxylic acid]	≤ 0.1	12.5	12.5	0.39	50	0.2	≤ 0.1	6.25	≤ 0.1	0.39	–	–	–	0.78	6.25	1.56	–
Cc1nnc(SCC2=C(C(=O)O)N3C(=O)[C@@H](NC(=O)Cn4cnnn4)[C@H]3SC2)s1 [Cephazoline, reference compound]	1.56 (≈ 3.43 µM)	200 (≈ 440 µM)	100 (≈ 220 µM)	–	> 200	3.13 (≈ 6.89 µM)	1.56 (≈ 3.43 µM)	> 200	–	–	–	–	–	> 200	> 200	> 200	MIC ([1]; Escherichia coli, E. coli TK3 (penicillinase-producing), 10^4 cells/plate, 37° C., 20 hours, read-out: MIC): 25 µg/mL (≈ 55 µM); MIC (Pro. mirabilis T-111; Proteus mirabilis, T111, Pro. mirabilis T-111, 10^4 cells/plate, 37° C., 20 hours, read-out: MIC): 6.25 µg/mL (≈ 13.8 µM)
CO/N=C(\C(=O)NC1C(=O)N2C(C(=O)O)=C(Cn3ncnn3)CSC12)c1csc(N)n1 (stereo not drawn) [F, Trifluoroacetic acid salt of 7-[2-(2-aminothiazol-4-yl)-2-(syn)-methoxyiminoacetamido]-3-[2-(1,2,3,4-tetrazolyl)methyl]-Δ^3-cephem-4-carboxylic acid]	≤ 0.1	6.25	–	≤ 0.1	12.5	≤ 0.1	≤ 0.1	–	–	≤ 0.1	≤ 0.1	–	0.39	–	0.78	–	MIC (Al. faecalis B-1; Alcaligenes faecalis, B1, 20 h): 3.13 µg/mL
CO/N=C(\C(=O)NC1C(=O)N2C(C(=O)O)=C(Cn3cnnn3)CSC12)c1csc(N)n1 (stereo not drawn) [G, Trifluoroacetic acid salt of 7-[2-(2-aminothiazol-4-yl)-2-(syn)-methoxyiminoacetamido]-3-[1-(1,2,3,4-tetrazolyl)methyl]-Δ^3-cephem-4-carboxylic acid]	≤ 0.1	25	12.5	0.39	6.25	0.2	≤ 0.1	–	–	0.2	0.2	0.78	–	–	–	1.56	–
